According to ChEMBL document CHEMBL5338820, “Discovery and Design of Novel Cyclic Peptides as Specific Inhibitors Targeting CCN2 and Disrupting CCN2/EGFR Interaction for Kidney Fibrosis Treatment” (J Med Chem, 2023):
Calls of active or inactive are those of the source. The rule behind the calls is not given here. Peptide text beside a SMILES is read from it.

Assays:
[1] = target: T1, CCN2-EGFR (Homo sapiens) (UniProt P00533+P29279); assay: Inhibition of His-tagged full length human CCN2 FL domain/human Fc-tagged EGFR protein-protein interaction using TMB as chromogenic substrate at 100 uM incubated for 140 mins by microplate reader assay relative to control
[2] = target: T1, CCN2-EGFR (Homo sapiens); assay: Inhibition of His-tagged full length human CCN2 CT domain/human Fc-tagged EGFR protein-protein interaction using TMB as chromogenic substrate at 100 uM incubated for 140 mins by microplate reader assay relative to control
[3] = target: T2, CCN family member 2 (Homo sapiens) (UniProt P29279); assay: Inhibition of recombinant human CCN2 FL domain expressed in human […] cells assessed as reduction in STAT3 phosphorylation at 100 uM incubated for 24 hrs by Western blotting assay; type: cell-based
T2 sequence (whole entry): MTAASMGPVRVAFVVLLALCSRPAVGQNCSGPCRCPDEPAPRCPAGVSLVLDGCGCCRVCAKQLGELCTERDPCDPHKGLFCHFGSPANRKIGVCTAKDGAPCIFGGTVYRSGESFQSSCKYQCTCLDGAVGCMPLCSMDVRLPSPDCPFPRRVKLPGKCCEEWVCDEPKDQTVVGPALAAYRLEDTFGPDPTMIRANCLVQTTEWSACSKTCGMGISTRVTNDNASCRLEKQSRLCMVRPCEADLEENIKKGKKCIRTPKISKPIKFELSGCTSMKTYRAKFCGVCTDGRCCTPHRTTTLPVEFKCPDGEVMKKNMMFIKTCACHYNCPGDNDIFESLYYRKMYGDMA

[4] = target: T2, CCN family member 2 (Homo sapiens); assay: Inhibition of recombinant human CCN2 CT domain expressed in human […] cells assessed as reduction in fibronectin synthesis at 100 uM incubated for 24 hrs by Western blotting assay; type: cell-based
[5] = target: T2, CCN family member 2 (Homo sapiens); assay: Inhibition of recombinant human CCN2 CT domain expressed in human […] cells assessed as reduction in COL1A1 synthesis at 100 uM incubated for 24 hrs by Western blotting assay; type: cell-based
[6] = target: T3, CCN family member 2 (Homo sapiens, UniProt P29279); assay: Binding affinity to His-tagged full length human CCN2 CT domain assessed as dissociation constant by isothermal titration calorimetry assay
T3 sequence (P29279 whole entry): T2 sequence (whole entry)

[7] = Toxicity in Unilateral ureteric obstruction C57BL/6J mouse model assessed as change in hair color at 250 microg/kg,ip administrated for 14 days; settings: in vivo, 0.25 mg/kg, 336 h, dose 250 µg/kg, time 14 day
[8] = Toxicity in Unilateral ureteric obstruction C57BL/6J mouse model assessed as change in behaviour at 250 microg/kg,ip administrated for 14 days; settings: in vivo, 0.25 mg/kg, 336 h, dose 250 µg/kg, time 14 day
[9] = Toxicity in Unilateral ureteric obstruction C57BL/6J mouse model assessed as change in food consumption at 250 microg/kg,ip administrated for 14 days; settings: in vivo, 0.25 mg/kg, 336 h, dose 250 µg/kg, time 14 day
[10] = Toxicity in Unilateral ureteric obstruction C57BL/6J mouse model assessed as change in body weight at 250 microg/kg,ip administrated for 14 days; settings: in vivo, 0.25 mg/kg, 336 h, dose 250 µg/kg, time 14 day
[11] = system: Mus musculus; assay: Antifibrotic activity against Unilateral ureteric obstruction ligation induced C57BL/6J mouse kidney fibrosis model assessed as reduction of renal tubular injury at 250 microg/kg,ip administrated for 14 days by hematoxylin and eosin staining based analysis; type: functional, organism-based; settings: dose 250.0 µg/kg, time 14.0 day
[12] = system: Mus musculus; assay: Antifibrotic activity against Unilateral ureteric obstruction ligation induced C57BL/6J mouse kidney fibrosis model assessed as reduction of inflammatory infiltration at 250 microg/kg,ip administrated for 14 days by hematoxylin and eosin staining based analysis; type: functional, organism-based; settings: dose 250.0 µg/kg, time 14.0 day
[13] = system: Mus musculus; assay: Antifibrotic activity against Unilateral ureteric obstruction ligation induced C57BL/6J mouse kidney fibrosis model assessed as reduction of collagen formation at 250 microg/kg,ip administrated for 14 days by […] staining based analysis; type: functional, organism-based; settings: dose 250.0 µg/kg, time 14.0 day
[14] = system: Mus musculus; assay: Antifibrotic activity against Unilateral ureteric obstruction ligation induced C57BL/6J mouse kidney fibrosis model assessed as downregulation of EGFR phosphorylation at 250 microg/kg,ip administrated for 14 days by Western blotting analysis; type: functional, organism-based; settings: dose 250.0 µg/kg, time 14.0 day
[15] = system: Mus musculus; assay: Antifibrotic activity against Unilateral ureteric obstruction ligation induced C57BL/6J mouse kidney fibrosis model assessed as downregulation of STAT3 phosphorylation at 250 microg/kg,ip administrated for 14 days by Western blotting analysis; type: functional, organism-based; settings: dose 250.0 µg/kg, time 14.0 day
[16] = system: Mus musculus; assay: Antifibrotic activity against Unilateral ureteric obstruction ligation induced C57BL/6J mouse kidney fibrosis model assessed as downregulation of fibronectin synthesis at 250 microg/kg,ip administrated for 14 days by Western blotting analysis; type: functional, organism-based; settings: dose 250.0 µg/kg, time 14.0 day
[17] = system: Mus musculus; assay: Antifibrotic activity against Unilateral ureteric obstruction ligation induced C57BL/6J mouse kidney fibrosis model assessed as downregulation of COL1A1 synthesis at 250 microg/kg,ip administrated for 14 days by Western blotting analysis; type: functional, organism-based; settings: dose 250.0 µg/kg, time 14.0 day
[18] = target: T1, CCN2-EGFR (Homo sapiens); assay: Inhibition of His-tagged full length human CCN2 FL domain/human Fc-tagged EGFR protein-protein interaction using TMB as chromogenic substrate at 0.1 mg/ml incubated for 140 mins by microplate reader assay relative to control
[19] = target: T1, CCN2-EGFR (Homo sapiens); assay: Inhibition of His-tagged full length human CCN2 CT domain/human Fc-tagged EGFR protein-protein interaction using TMB as chromogenic substrate at 0.1 mg/ml incubated for 140 mins by microplate reader assay relative to control
[20] = target: T2, CCN family member 2 (Homo sapiens); assay: Inhibition of recombinant human CCN2 FL domain expressed in human HK-1 cells assessed as reduction in fibronectin synthesis at 0.1 mg/ml incubated for 24 hrs by Western blotting assay; type: cell-based
[21] = target: T2, CCN family member 2 (Homo sapiens); assay: Inhibition of recombinant human CCN2 FL domain expressed in human […] cells assessed as reduction in COL1A1 synthesis at 0.1 mg/ml incubated for 24 hrs by Western blotting assay; type: cell-based
[22] = target: T2, CCN family member 2 (Homo sapiens); assay: Inhibition of recombinant human CCN2 CT domain expressed in human […] cells assessed as reduction in fibronectin synthesis at 0.1 mg/ml incubated for 24 hrs by Western blotting assay; type: cell-based
[23] = target: T2, CCN family member 2 (Homo sapiens); assay: Inhibition of recombinant human CCN2 CT domain expressed in human […] cells assessed as reduction in COL1A1 synthesis at 0.1 mg/ml incubated for 24 hrs by Western blotting assay; type: cell-based

T1 sequence (P00533 whole entry, looked up, one chain of several, the tested form may be a part): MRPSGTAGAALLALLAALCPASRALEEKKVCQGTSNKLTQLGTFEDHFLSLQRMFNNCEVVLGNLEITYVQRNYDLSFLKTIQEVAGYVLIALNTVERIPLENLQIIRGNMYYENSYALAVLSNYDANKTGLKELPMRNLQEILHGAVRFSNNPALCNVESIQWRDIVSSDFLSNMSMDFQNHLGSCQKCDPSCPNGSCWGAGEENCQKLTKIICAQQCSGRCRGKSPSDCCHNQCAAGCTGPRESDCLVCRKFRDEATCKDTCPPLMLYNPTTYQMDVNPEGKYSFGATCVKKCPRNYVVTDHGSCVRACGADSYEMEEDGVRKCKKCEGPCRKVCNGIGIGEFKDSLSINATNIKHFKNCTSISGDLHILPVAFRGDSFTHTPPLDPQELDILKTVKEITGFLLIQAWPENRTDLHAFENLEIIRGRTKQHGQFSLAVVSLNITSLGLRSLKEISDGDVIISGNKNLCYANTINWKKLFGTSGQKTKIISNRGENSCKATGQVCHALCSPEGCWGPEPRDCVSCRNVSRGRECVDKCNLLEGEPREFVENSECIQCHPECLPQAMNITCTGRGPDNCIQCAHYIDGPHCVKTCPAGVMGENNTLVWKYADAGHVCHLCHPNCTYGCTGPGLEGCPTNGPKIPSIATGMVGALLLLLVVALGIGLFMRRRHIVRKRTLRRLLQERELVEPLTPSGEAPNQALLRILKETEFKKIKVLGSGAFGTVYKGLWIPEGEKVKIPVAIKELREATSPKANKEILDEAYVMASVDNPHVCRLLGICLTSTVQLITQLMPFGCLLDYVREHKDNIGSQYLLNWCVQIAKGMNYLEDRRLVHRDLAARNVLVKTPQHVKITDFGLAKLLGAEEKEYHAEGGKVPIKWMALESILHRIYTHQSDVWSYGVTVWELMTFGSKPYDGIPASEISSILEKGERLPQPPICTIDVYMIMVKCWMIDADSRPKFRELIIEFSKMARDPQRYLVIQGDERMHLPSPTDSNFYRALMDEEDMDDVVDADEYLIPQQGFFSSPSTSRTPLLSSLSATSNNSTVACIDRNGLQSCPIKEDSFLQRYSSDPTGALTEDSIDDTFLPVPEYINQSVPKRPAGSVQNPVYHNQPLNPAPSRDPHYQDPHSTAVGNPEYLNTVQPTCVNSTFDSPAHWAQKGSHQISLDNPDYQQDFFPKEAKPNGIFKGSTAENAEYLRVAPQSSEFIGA

| SMILES | inhibition [1] | inhibition [2] | inhibition [4] | inhibition [5] | other results |
| --- | --- | --- | --- | --- | --- |
| C[C@@H](O)[C@H](N)C(=O)N[C@@H](CCCCN)C(=O)N[C@@H](Cc1c[nH]cn1)C(=O)N[C@@H](CCCNC(=N)N)C(=O)N1CCC[C@H]1C(=O)N[C@@H](Cc1c[nH]c2ccccc12)C(=O)N[C@H](C(N)=O)[C@@H](C)O (H-TKHRPWT-NH2) | 62.3% | 78.7% | Active | Active | inhibition [3]: Active; Kd [6]: 3.9 µM; Activity [7]: Non-Toxic; Activity [8]: Non-Toxic; Activity [9]: Non-Toxic; Activity [10]: Non-Toxic; Activity [11]: Active; Activity [12]: Active; Activity [13]: Active; Activity [14]: Active; Activity [15]: Active; Activity [16]: Active; Activity [17]: Active |
| CC(C)C[C@H](NC(=O)[C@@H](N)CC(C)C)C(=O)N[C@@H](C)C(=O)N[C@@H](CC(=O)O)C(=O)N[C@H](C(=O)N[C@H](C(=O)N[C@@H](Cc1c[nH]cn1)C(=O)N[C@@H](Cc1c[nH]cn1)C(=O)N[C@@H](CCCNC(=N)N)C(=O)N1CCC[C@H]1C(=O)N[C@@H](Cc1c[nH]c2ccccc12)C(=O)N[C@H](C(N)=O)[C@@H](C)O)[C@@H](C)O)[C@@H](C)O (H-LLADTTHHRPWT-NH2) |  |  |  |  | inhibition [18]: 39.5%; inhibition [19]: 71.4%; inhibition [20]: Active; inhibition [21]: Active; inhibition [22]: Active; inhibition [23]: Active |
| C[C@@H](O)[C@H](N)C(=O)N[C@H](C(=O)N[C@@H](Cc1c[nH]cn1)C(=O)N[C@@H](Cc1c[nH]cn1)C(=O)N[C@@H](CCCNC(=N)N)C(=O)N1CCC[C@H]1C(=O)N[C@@H](Cc1c[nH]c2ccccc12)C(=O)N[C@H](C(N)=O)[C@@H](C)O)[C@@H](C)O (H-TTHHRPWT-NH2) | 68.1% | 60% | Active | Active |  |
| CC(C)C[C@H](N)C(=O)N[C@@H](C)C(=O)N[C@@H](CC(=O)O)C(=O)N[C@H](C(=O)N[C@H](C(=O)N[C@@H](Cc1c[nH]cn1)C(=O)N[C@@H](Cc1c[nH]cn1)C(=O)N[C@@H](CCCNC(=N)N)C(=O)N1CCC[C@H]1C(=O)N[C@@H](Cc1c[nH]c2ccccc12)C(=O)N[C@H](C(N)=O)[C@@H](C)O)[C@@H](C)O)[C@@H](C)O (H-LADTTHHRPWT-NH2) | 68.8% | 67.4% | Active | Active |  |
| C[C@@H](O)[C@H](NC(=O)[C@H](Cc1c[nH]c2ccccc12)NC(=O)[C@@H]1CCCN1C(=O)[C@H](CCCNC(=N)N)NC(=O)[C@@H](N)Cc1c[nH]cn1)C(N)=O (H-HRPWT-NH2) | 13.9% | 7.9% | inactive | inactive |  |
| C[C@@H](O)[C@H](N)C(=O)N[C@@H](Cc1c[nH]cn1)C(=O)N[C@@H](Cc1c[nH]cn1)C(=O)N[C@@H](CCCNC(=N)N)C(=O)N1CCC[C@H]1C(=O)N[C@@H](Cc1c[nH]c2ccccc12)C(=O)N[C@H](C(N)=O)[C@@H](C)O (H-THHRPWT-NH2) | 66.6% | 62% | Active | Active |  |
| C[C@@H](O)[C@H](N)C(=O)N[C@@H](Cc1c[nH]cn1)C(=O)N[C@@H](CCCCN)C(=O)N[C@@H](CCCNC(=N)N)C(=O)N1CCC[C@H]1C(=O)N[C@@H](Cc1c[nH]c2ccccc12)C(=O)N[C@H](C(N)=O)[C@@H](C)O (H-THKRPWT-NH2) | 59.7% | 63.4% | Active | Active |  |
| C[C@@H](O)[C@H](NC(=O)[C@H](Cc1c[nH]c2ccccc12)NC(=O)[C@@H]1CCCN1C(=O)[C@H](CCCNC(=N)N)NC(=O)[C@H](Cc1c[nH]cn1)NC(=O)[C@@H](N)Cc1c[nH]cn1)C(N)=O (H-HHRPWT-NH2) | 16% | 9.4% | inactive | inactive |  |
| C[C@@H](O)[C@H](N)C(=O)N[C@@H](Cc1c[nH]cn1)C(=O)N[C@@H](Cc1c[nH]cn1)C(=O)N[C@@H](CCCNC(=N)N)C(=O)N[C@@H](CCCCN)C(=O)N[C@@H](Cc1c[nH]c2ccccc12)C(=O)N[C@H](C(N)=O)[C@@H](C)O (H-THHRKWT-NH2) | 15% | 11% | inactive | inactive |  |
| C[C@H](N)C(=O)N[C@@H](CC(=O)O)C(=O)N[C@H](C(=O)N[C@H](C(=O)N[C@@H](Cc1c[nH]cn1)C(=O)N[C@@H](Cc1c[nH]cn1)C(=O)N[C@@H](CCCNC(=N)N)C(=O)N1CCC[C@H]1C(=O)N[C@@H](Cc1c[nH]c2ccccc12)C(=O)N[C@H](C(N)=O)[C@@H](C)O)[C@@H](C)O)[C@@H](C)O (H-ADTTHHRPWT-NH2) | 70.6% | 61.9% | Active | Active |  |
| C[C@@H](O)[C@H](NC(=O)[C@H](Cc1c[nH]c2ccccc12)NC(=O)[C@@H]1CCCN1C(=O)[C@H](CCCNC(=N)N)NC(=O)[C@H](Cc1c[nH]cn1)NC(=O)[C@H](Cc1c[nH]cn1)NC(=O)[C@@H](NC(=O)[C@@H](NC(=O)[C@@H](N)CC(=O)O)[C@@H](C)O)[C@@H](C)O)C(N)=O (H-DTTHHRPWT-NH2) | 63.7% | 65.8% | Active | Active |  |
| C[C@@H](O)[C@H](N)C(=O)N[C@@H](Cc1c[nH]cn1)C(=O)N[C@@H](Cc1c[nH]cn1)C(=O)N[C@@H](CCCCN)C(=O)N1CCC[C@H]1C(=O)N[C@@H](Cc1c[nH]c2ccccc12)C(=O)N[C@H](C(N)=O)[C@@H](C)O (H-THHKPWT-NH2) | 14.4% | 65.8% | inactive | inactive |  |
